According to article PMC4408887 (Nature chemistry, 2015):
Positions of bridges follow the written chain, without caps; N, C: chain ends. Non-standard residues stand in square brackets, D forms with d. Residues, ends and D or L forms follow the SMILES beside them. Triazole bridges read from a SMILES are 1,4-linked. Chains are numbered I, II in the order given. No end group written: not given here. *: point of attachment. Biotin = O=C1N[C@H]2[C@H](CS[C@H]2CCCCC(=O)*)N1; Lys(N3) = [N-]=[N+]=NCCCC[C@H](N)C(=O)O; PEG5 = NCCOCCOCCOCCOCCOCCC(=O)O; Pra = C#CC[C@H](N)C(=O)O

Tests used:
[1] = test system: E17K versus WT PH Domain of Akt1 - PIP3 interaction; experiment: PIP3 agarose inhibition, E17K relative to WT; type: biochemical; settings: triligand 0.1-1000 eq
[2] = test system: Akt1^E17K relative to Akt2^E17K; experiment: Point ELISA, Akt1 and Akt2 isoforms; type: binding; settings: 100 nM protein, triplicate
WT or E17K GST-Akt1 = experiment: Point ELISA in human serum; type: binding; settings: 150 nM protein, 0%, 1% and 2% human serum in TBS
[3] = target: WT 33-mer PH Domain epitope of Akt1 (Homo sapiens, UniProt P31749); experiment: Fluorescence polarization binding to WT 33-mer epitope
[4] = target: label-modified yleaf peptide used in fluorescence polarization; experiment: fluorescence polarisation
full length Akt1^E17K = full length Akt1^E17K (UniProt P31749 1-480, E17K); experiment: fluorescence polarisation
full length Akt1 (WT) = full length Akt1 (WT) (UniProt P31749 1-480); experiment: fluorescence polarisation

**Q.** Which “selective inhibition of E17K relative to WT” value [1] does the source give for `CC[C@@H](C)[C@@H](NC(=O)CCOCCOCCOCCOCCOCCNC(=O)CCCC[C@@H]1SC[C@@H]2NC(=O)N[C@@H]21)C(=O)N[C@@H](C(=O)N[C@H](CC(=O)O)C(=O)N[C@H](C)C(=O)N[C@H](CCC(=O)O)C(=O)N[C@@H](Cc1cn(CCCC[C@H](NC(C)=O)C(=O)N[C@H](Cc2ccc(O)cc2)C(=O)N[C@H](CC(C)C)C(=O)N[C@H](CCC(=O)O)C(=O)N[C@H](C)C(=O)N[C@H](Cc2ccccc2)C(=O)N[C@@H](Cc2cn(CCCC[C@H](NC(C)=O)C(=O)N[C@H](Cc3ccc(O)cc3)C(=O)N[C@H](CCCCN)C(=O)N[C@H](CO)C(=O)N[C@H](Cc3ccc(O)cc3)C(N)=O)nn2)C(=O)O)nn1)C(=O)O)C(C)C` [triligand] (I: Ac-[Lys(N3)][dY][dL][dE][dA][dF][Pra]-OH / II: {Biotin-PEG5}-[dI][dV][dD][dA][dE][Pra]-OH / III: Ac-[Lys(N3)][dY][dK][dS][dY]-NH2; triazole I:1-II:6, I:7-III:1; C-terminus assumed) here?
**A.** significant selective inhibition of the E17K mutant relative to the WT

**Q.** What about the “preference for Akt1^E17K relative to Akt2^E17K” value [2] of the same molecule?
**A.** slight preference for Akt1^E17K relative to the Akt2^E17K

**Q.** What about the “reduction in binding efficiency in human serum” value (WT or E17K GST-Akt1) of the same molecule?
**A.** very little reduction in binding efficiency

**Q.** Which Kd [3] does the source give for `CC(C)C[C@@H](NC(=O)[C@H](N)Cc1ccc(O)cc1)C(=O)N[C@H](CCC(=O)O)C(=O)N[C@H](C)C(=O)N[C@H](Cc1ccccc1)C(N)=O` [yleaf] (H-[dY][dL][dE][dA][dF]-NH2) here?
**A.** 2800 ± 840 nM

**Q.** With “WT 6-His-tagged 33-mer PH Domain peptide fragment of Akt1 (from UniProt P31749 1-33)” as the molecule, how does the Kd [4] read?
**A.** 2800 nM

**Q.** How did the Kd [4] turn out when “E17K mutant 6-His-tagged 33-mer PH Domain peptide fragment of Akt1 (from UniProt P31749 1-33)” was run?
**A.** 328 nM

**Q.** Which results are given for [dY][dL][dE][dA][dF] (also: label-modified, label not given here) [label-modified yleaf peptide used in fluorescence polarization]?
**A.** Kd (full length Akt1^E17K): 54 ± 7 nM; Kd (full length Akt1 (WT)): > 1000 nM
